Experimental data taken from patent US10889565B2, “4-hydroxy-3-sulfonylpyridin-2(1H)-ones as APJ receptor agonists” (BRISTOL-MYERS SQUIBB COMPANY, priority 2016, dated 2021).

Biological target: T1, human APJ receptor (Homo sapiens, UniProt P35414)
T1 construct: expressed in transfected cells
T1 sequence (P35414 1-380): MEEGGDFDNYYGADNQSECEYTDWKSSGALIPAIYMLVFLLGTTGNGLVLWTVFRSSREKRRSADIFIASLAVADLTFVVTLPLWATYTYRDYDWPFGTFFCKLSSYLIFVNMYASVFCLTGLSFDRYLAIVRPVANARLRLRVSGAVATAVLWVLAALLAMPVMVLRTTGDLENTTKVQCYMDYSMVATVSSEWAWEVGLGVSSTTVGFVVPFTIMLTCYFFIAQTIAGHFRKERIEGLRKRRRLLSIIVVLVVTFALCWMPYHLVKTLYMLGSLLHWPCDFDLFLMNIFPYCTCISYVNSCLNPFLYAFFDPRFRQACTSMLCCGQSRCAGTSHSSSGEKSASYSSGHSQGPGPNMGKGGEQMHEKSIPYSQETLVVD
Test: Intracellular cAMP accumulation assay (APJ hcAMP, HTRF)
Type: cell-based
Conditions: HEK293 cells stably expressing human APJ receptor; inhibition of forskolin-mediated cAMP production; read-out: Human APJ cAMP EC50 Potency range
Experimental: Intracellular cAMP Accumulation Assay
HEK293 cells stably expressing human APJ receptor were used to assess the activity of compounds. Cultured cells were detached and resuspended in the cAMP Homogeneous Time-Resolved Fluorescence (HTRF) assay buffer (Cisbio cat; #62AM4PEJ). The assay was performed in 384-well assay plates (Perkin-Elmer; cat #6008289) according to assay protocol provided by the manufacturer. Serial dilutions of a compound together with assay buffer containing […] IBMX and 2 μM forskolin were added to each well containing 5,000 cells and incubated for 30 minutes at room temperature. Subsequently, cAMP D2 reagent was added in the lysis buffer followed by the EuK antibody (Cisbio; cat #62AM4PEJ) and incubated for 60 min. The fluorescence emission ratio was measured using fluorometer. The intracellular cAMP concentrations (compound-stimulated inhibition of forskolin-mediated cAMP production) were calculated by extrapolation from a standard curve using known cAMP concentrations. The EC50 values were obtained by fitting the data to a sigmoidal concentration-response curve with variable slope. The maximal achievable inhibition of forskolin-induced cAMP levels (Ymax) for each compound was expressed as relative percentage of inhibition attained using pyroglutamated apelin-13 ((Pyr1)apelin-13) peptide, which was set to 100%.
The examples disclosed below were tested in the APJ in vitro assays described above and were found having human APJ cyclic AMP (hcAMP) activity. The EC50 value of each compound is presented at the end of the example description.
The biological activity of the exemplified compounds of this invention determined by the assay described above is shown at the end of each example.

CCCCc1[nH]c(=O)c(S(=O)(=O)c2ccc(-c3cccnc3OC)cc2)c(O)c1-c1c(OC)cccc1OC [Example 2, 6-butyl-5-(2,6-dimethoxy-phenyl)-4-hydroxy-3-((4-(2-methoxy-pyridin-3-yl)phenyl)sulfonyl) pyridin-2(1H)-one] and CCCCc1[nH]c(=O)c(S(=O)(=O)c2ccc(-c3ccncc3C)cc2)c(O)c1-c1c(OC)cccc1OC [Example 3, 6-butyl-5-(2,6-dimethoxy-phenyl)-4-hydroxy-3-((4-(3-methyl-pyridin-4-yl)phenyl)sulfonyl) pyridin-2(1H)-one] fall in the same range of EC50: 0.01 to 10 nM for the first, 0.01 to 10 nM for the second.

CCCCc1[nH]c(=O)c(S(=O)(=O)c2ccc(-c3cncc(F)c3)cc2)c(O)c1-c1c(OC)cccc1OC [Example 4, 6-butyl-5-(2,6-dimethoxy-phenyl)-3-((4-(5-fluoro-pyridin-3-yl)phenyl)sulfonyl)-4-hydroxy-pyridin-2(1H)-one] and CCCCc1[nH]c(=O)c(S(=O)(=O)c2ccc(-c3ccc(F)nc3)cc2)c(O)c1-c1c(OC)cccc1OC [Example 6, 6-butyl-5-(2,6-dimethoxy-phenyl)-3-((4-(6-fluoro-pyridin-3-yl)phenyl)sulfonyl)-4-hydroxy-pyridin-2(1H)-one] fall in the same range of EC50: 0.01 to 10 nM for the first, 0.01 to 10 nM for the second.

First: CCCCc1[nH]c(=O)c(S(=O)(=O)c2ccc(-c3ccc(F)nc3C)cc2)c(O)c1-c1c(OC)cccc1OC [Example 5, 6-butyl-5-(2,6-dimethoxy-phenyl)-3-((4-(6-fluoro-2-methyl-pyridin-3-yl)phenyl)sulfonyl)-4-hydroxy-pyridin-2(1H)-one]
Second: CCCCc1[nH]c(=O)c(S(=O)(=O)c2ccc(-c3ccc(F)cc3)cc2)c(O)c1-c1c(OC)cccc1OC [Example 13, 6-butyl-5-(2,6-dimethoxy-phenyl)-3-((4′-fluoro-[1,1′-biphenyl]-4-yl)sulfonyl)-4-hydroxy-pyridin-2(1H)-one]
The EC50 of the first is lower: 0.01 to 10 nM for the first, 10 to 100 nM for the second. The first is the more potent here.

CCCCc1[nH]c(=O)c(S(=O)(=O)c2ccc(C3CC3)cc2)c(O)c1-c1c(OC)cccc1OC [Example 7, 6-butyl-3-((4-cyclo-propylphenyl)sulfonyl)-5-(2,6-dimethoxy-phenyl)-4-hydroxy-pyridin-2(1H)-one] and CCOCc1[nH]c(=O)c(S(=O)(=O)c2ccc(C3CC3)cc2)c(O)c1-c1c(OC)cccc1OC [Example 11, 3-((4-cyclo-propylphenyl)sulfonyl)-5-(2,6-dimethoxy-phenyl)-6-(ethoxymethyl)-4-hydroxy-pyridin-2(1H)-one] fall in the same range of EC50: 0.01 to 10 nM for the first, 0.01 to 10 nM for the second.

CCCCc1[nH]c(=O)c(S(=O)(=O)c2ccc(NC(=O)OC(C)(C)C)cc2)c(O)c1-c1c(OC)cccc1OC [Example 8, tert-butyl (4-((6-butyl-5-(2,6-dimethoxy-phenyl)-4-hydroxy-2-oxo-1,2-dihydro-pyridin-3-yl)sulfonyl)phenyl) carbamate] and CCCCc1[nH]c(=O)c(S(=O)(=O)c2ccc(N)cc2)c(O)c1-c1c(OC)cccc1OC [Example 27, 3-((4-aminophenyl)sulfonyl)-6-butyl-5-(2,6-dimethoxyphenyl)-4-hydroxypyridin-2(1H)-one] fall in the same range of EC50: 0.01 to 10 nM for the first, 0.01 to 10 nM for the second.

CCOCc1[nH]c(=O)c(S(=O)(=O)c2ccc(-c3ccc(F)cc3)cc2)c(O)c1-c1c(OC)cccc1OC [Example 9, 5-(2,6-dimethoxy-phenyl)-6-(ethoxymethyl)-3-((4′-fluoro-[1,1′-biphenyl]-4-yl)sulfonyl)-4-hydroxypyridin-2(1H)-one] and CCOCc1[nH]c(=O)c(S(=O)(=O)c2ccc(-c3ccc(F)nc3)cc2)c(O)c1-c1c(OC)cccc1OC [Example 12, 5-(2,6-dimethoxy-phenyl)-6-(ethoxymethyl)-3-((4-(6-fluoro-pyridin-3-yl)phenyl)sulfonyl)-4-hydroxy-pyridin-2(1H)-one] fall in the same range of EC50: 0.01 to 10 nM for the first, 0.01 to 10 nM for the second.

First: CCCCc1[nH]c(=O)c(S(=O)(=O)c2ccccc2)c(O)c1-c1c(OC)cccc1OC [Example 10, 6-butyl-5-(2,6-dimethoxy-phenyl)-4-hydroxy-3-(phenyl-sulfonyl) pyridin-2(1H)-one]
Second: CCCCc1[nH]c(=O)c(S(=O)(=O)c2ccccc2Br)c(O)c1-c1c(OC)cccc1OC [Example 15, 3-((2-bromophenyl)sulfonyl)-6-butyl-5-(2,6-dimethoxy-phenyl)-4-hydroxy-pyridin-2(1H)-one]
The EC50 of the first is lower: 0.01 to 10 nM for the first, 10 to 100 nM for the second.

First: CCOCc1[nH]c(=O)c(S(=O)(=O)c2ccc(Br)cc2)c(O)c1-c1c(OC)cccc1OC [Example 14, 3-((4-bromophenyl)sulfonyl)-5-(2,6-dimethoxy-phenyl)-6-(ethoxymethyl)-4-hydroxy-pyridin-2(1H)-one]
Second: CCOCc1[nH]c(=O)c(S(=O)(=O)c2ccc(-n3ccccc3=O)cc2)c(O)c1-c1c(OC)cccc1OC [Example 26, 5-(2,6-dimethoxy-phenyl)-6-(ethoxymethyl)-4-hydroxy-3-((4-(2-oxopyridin-1(2H)-yl)phenyl)sulfonyl) pyridin-2(1H)-one]
The EC50 of the first is higher: 10 to 100 nM for the first, 0.01 to 10 nM for the second.

COc1cccc(OC)c1-c1c(-c2ccc(F)cc2)[nH]c(=O)c(S(=O)(=O)c2ccc(-c3ccnc(F)c3C)cc2)c1O [Example 16, 5-(2,6-dimethoxy-phenyl)-3-((4-(2-fluoro-3-methyl-pyridin-4-yl)phenyl)sulfonyl)-6-(4-fluoro-phenyl)-4-hydroxy-pyridin-2(1H)-one] and COc1cccc(OC)c1-c1c(-c2ccc(F)cc2)[nH]c(=O)c(S(=O)(=O)c2ccc(-c3ccc(F)nc3C)cc2)c1O [Example 17, 5-(2,6-dimethoxy-phenyl)-3-((4-(6-fluoro-2-methyl-pyridin-3-yl)phenyl)sulfonyl)-6-(4-fluoro-phenyl)-4-hydroxy-pyridin-2(1H)-one] fall in the same range of EC50: 0.01 to 10 nM for the first, 0.01 to 10 nM for the second.

First: CCCCc1[nH]c(=O)c(S(=O)(=O)c2cccc[n+]2[O-])c(O)c1-c1c(OC)cccc1OC [Example 18, 6-butyl-5-(2,6-dimethoxy-phenyl)-4-hydroxy-3-((1-hydroxy-1l4-pyridin-2-yl)sulfonyl) pyridin-2(1H)-one]
Second: CCCCc1[nH]c(=O)c(S(=O)(=O)c2ccc(-n3ccccc3=O)cc2)c(O)c1-c1c(OC)cccc1OC [Example 22, 6-butyl-5-(2,6-dimethoxy-phenyl)-4-hydroxy-3-((4-(2-oxopyridin-1(2H)-yl)phenyl)sulfonyl) pyridin-2(1H)-one]
The EC50 of the first is higher: 100 to 300 nM for the first, 0.01 to 10 nM for the second.

CCCCc1[nH]c(=O)c(S(=O)(=O)c2ccc(-n3cc(Cl)ccc3=O)cc2)c(O)c1-c1c(OC)cccc1OC [Example 19, 6-Butyl-3-((4-(5-chloro-2-oxopyridin-1 (2H)-yl)phenyl)sulfonyl)-5-(2,6-dimethoxyphenyl)-4-hydroxypyridin-2(1H)-one] and CCCCc1[nH]c(=O)c(S(=O)(=O)c2ccc(-n3cc(C)ccc3=O)cc2)c(O)c1-c1c(OC)cccc1OC [Example 20, 6-butyl-5-(2,6-dimethoxy-phenyl)-4-hydroxy-3-((4-(5-methyl-2-oxopyridin-1(2H)-yl)phenyl)sulfonyl) pyridin-2(1H)-one] fall in the same range of EC50: 0.01 to 10 nM for the first, 0.01 to 10 nM for the second.

CCOCc1[nH]c(=O)c(S(=O)(=O)c2ccc(-n3cc(Cl)ccc3=O)cc2)c(O)c1-c1c(OC)cccc1OC [Example 21, 3-((4-(5-chloro-2-oxopyridin-1(2H)-yl)phenyl)sulfonyl)-5-(2,6-dimethoxy-phenyl)-6-(ethoxymethyl)-4-hydroxy-pyridin-2(1H)-one] and CCOCc1[nH]c(=O)c(S(=O)(=O)c2ccc(-n3cc(C)ccc3=O)cc2)c(O)c1-c1c(OC)cccc1OC [Example 24, 5-(2,6-dimethoxy-phenyl)-6-(ethoxymethyl)-4-hydroxy-3-((4-(5-methyl-2-oxopyridin-1(2H)-yl)phenyl)sulfonyl) pyridin-2(1H)-one] fall in the same range of EC50: 0.01 to 10 nM for the first, 0.01 to 10 nM for the second.

First: COc1cccc(OC)c1-c1c(-c2ccc(F)cc2)[nH]c(=O)c(S(=O)(=O)c2ccc(-n3cc(Cl)ccc3=O)cc2)c1O [Example 23, 3-((4-(5-chloro-2-oxopyridin-1(2H)-yl)phenyl)sulfonyl)-5-(2,6-dimethoxy-phenyl)-6-(4-fluorophenyl)-4-hydroxy-pyridin-2(1H)-one]
Second: CCOCc1[nH]c(=O)c(S(=O)(=O)c2ccc(-n3cc(Cl)cc(Cl)c3=O)cc2)c(O)c1-c1c(OC)cccc1OC [Example 25, 3-((4-(3,5-dichloro-2-oxopyridin-1(2H)-yl)phenyl)sulfonyl)-5-(2,6-dimethoxy-phenyl)-6-(ethoxymethyl)-4-hydroxy-pyridin-2(1H)-one]
The EC50 of the first is lower: 0.01 to 10 nM for the first, 10 to 100 nM for the second. The first is the more potent here.

In the case of CCCCc1[nH]c(=O)c(S(=O)(=O)c2ccc(Nc3ccc(F)nc3)cc2)c(O)c1-c1c(OC)cccc1OC [Example 28, 6-butyl-5-(2,6-dimethoxyphenyl)-3-((4-((6-fluoropyridin-3-yl)amino)phenyl)sulfonyl)-4-hydroxypyridin-2(1H)-one], the EC50 is reported as 0.01 to 10 nM.
